According to US20260115331A1, “PET IMAGING OF BACTERIAL INFECTION WITH A PET PROBE” (Mayo Foundation for Medical Education and Research, priority 2022, published 2026):
Like-named read-outs stand apart in the source and are kept apart here.

Assays:
[1] = test system: Pseudomonas aeruginosa (P. aeruginosa); assay: Ex vivo biodistribution in osteomyelitis foreign body rat model with P. aeruginosa infection vs inflammation model; design: species or system rats; conditions: 120 minutes post-injection, comparable SUVs except bladder and feces (FIG. 35)
Experimental: The acquired PET images were visualized and analyzed for quantifying standardized uptake value (SUV) using image analysis software—MIM 7 software and PMOD. Following final imaging at 120 minutes post-injection, the animal was euthanized, and major organs and infected and inflamed tibia were extracted for gamma counting for ex-vivo biodistribution analysis (see FIG. 22). At the end of last imaging session, rats were euthanized by cardiectomy, and the operated tibia with K-wire or contralateral tibia were aseptically removed. Following removal, tibias were weighed, and Ga-68 radioactivity was counted in 2480 Wizard2 automatic gamma counter for ex-vivo biodistribution assessment. The tibias were then frozen to −80° C. The frozen tibia from each animal was crushed aseptically using a bone pulverizer chilled at −80° C. The crushed tibia without K wire was weighed and vortexed in 1 mL sterile saline. The K wire was also vortexed in 1.0 mL sterile saline separately. The vortexed tibia and K-wire saline suspension were sonicated for 5 minutes. After sonication, 1:10 serial dilutions were prepared in saline and 0.1 mL of each dilution was plated in Trypticase Soy Agar plates with 5% Sheep Blood (TSA II). After 24 hours of incubation at 37° C., the bacterial cultures in tibia suspension and K-wire suspension were quantified. […]

[2] = test system: Methicillin-resistant Staphylococcus aureus (MRSA); assay type: in vivo, rats; conditions: for SUV (Average ± SD), Contralateral Tibia / SUV (Average ± SD), Infected Tibia / SUV (Average ± SD), Muscle: Osteomyelitis Foreign Body model
Experimental: The PET probe [^68Ga]Ga-H3P2O8 was evaluated in methicillin-resistant S. aureus (MRSA) foreign-body osteomyelitis in the left tibia with a stainless steel Kirschner wire (K-wire) implant in male Wister rats, following a previously established protocol [Ref. 17]. Briefly, a 1 cm incision was made on the medial tibia and the bone exposed. A 1.5 mm hole was drilled, 0.01 mL of arachidonic acid (a sclerosing agent) and 0.05 mL of a suspension containing MRSA DRL-6169 at 10^8 cfu/mL was injected into the bone. A 5 mm threaded stainless-steel K-wire was inserted. The hole was closed with dental gypsum and the site closed. After implantation, the muscle and fascia were closed with 3-0 vicryl using simple interrupted sutures. The skin was closed with sterile wound clips and VetBond. The wound was sprayed with Aluspray and Chew Guard. After 7 days of implantation of wire, the animal was put on iron-deficient diet for 7 days and on the day of imaging, the animals were fasted for 4 hours prior to the injection of the PET probe. [^68Ga]Ga-H3P2O8 (32.81±6.28 MBq, n=18) were injected into the rat model via tail vein injection. The rat model was either a normal rat model or an osteomyelitis foreign body rat model or an inflamed foreign body rat model. PET/CT images were acquired at 15 minutes, 30 minutes, 60 minutes, and 120 minutes post-injection using Siemens Inveon MicroPET/CT Scanner (see FIGS. 17, 18, and Table 2).
The acquired PET images were visualized and analyzed for quantifying standardized uptake value (SUV) using image analysis software—MIM 7 software and PMOD. Following final imaging at 120 minutes post-injection, the animal was euthanized, and major organs and infected and inflamed tibia were extracted for gamma counting for ex-vivo biodistribution analysis (see FIG. 22). At the end of last imaging session, rats were euthanized by cardiectomy, and the operated tibia with K-wire or contralateral tibia were aseptically removed. Following removal, tibias were weighed, and Ga-68 radioactivity was counted in 2480 Wizard2 automatic gamma counter for ex-vivo biodistribution assessment. The tibias were then frozen to −80° C. The frozen tibia from each animal was crushed aseptically using a bone pulverizer chilled at −80° C. The crushed tibia without K wire was weighed and vortexed in 1 mL sterile saline. The K wire was also vortexed in 1.0 mL sterile saline separately. The vortexed tibia and K-wire saline suspension were sonicated for 5 minutes. After sonication, 1:10 serial dilutions were prepared in saline and 0.1 mL of each dilution was plated in Trypticase Soy Agar plates with 5% Sheep Blood (TSA II). After 24 hours of incubation at 37° C., the bacterial cultures in tibia suspension and K-wire suspension were quantified. In the 2-week-old osteomyelitis model used in the study, the infected tibia contained 7.00±0.19 log10 cfu/g tibia (n=10) and 5.41±0.40 log10 cfu/K-wire (n=10).

[3] = Biodistribution in normal mice at 120 min post injection; assay type: in vivo; conditions: N = 5, 120 min post injection
Excerpt: The feasibility of the developed PET probe [^68Ga]Ga-H3P2O8 in a mouse model of thigh infection as well as uptake in E. coli has been evaluated. […] The biodistribution of developed PET probe in normal and in thigh infected mice has been assessed (see FIG. 11). […] Micro-PET imaging of normal and thigh-infected mice has also been performed. The site of bacterial infection was evident on micro-PET images (see FIG. 13) with arrows in contrast to the non-infected group of mice. The bacterial site of infection on micro-PET images was confirmed by bacterial culture performed on the biopsied sample. Micro-PET imaging was performed at different time intervals to optimize imaging time.

E coli = assay: Biodistribution in lung infected mice (E. coli) at 120 min post injection; assay type: in vivo
[4] = test system: Methicillin-resistant Staphylococcus aureus (MRSA); assay type: in vivo, rats; conditions: PET image analysis, p<0.05 (FIG. 30)
[5] = n = 3, 2 h post infection with E coli

With `O=P(O)(O)[O][Ga]1[O]P(=O)(O)[O]1` [[^68Ga]Ga-H3P2O8, [^68Ga]Ga-hydrogen bisphosphate] the “distribution in organs/excrement of infected model compared with inflammation model” value [1] was “similar”, the “mean SUV in infected tibia compared with [^68Ga]Ga-Citrate or [^18F]FDG” value ([2]; MRSA infected tibia, after 60 minutes post injection, PET image analysis (FIG. 26)) was “significantly higher mean SUV” and the “SUV (Average ± SD), Contralateral Tibia” value ([2]; n = 5, 15 min post-injection) was 0.76 ± 0.17 SUV. For the same compound, the “SUV (Average ± SD), Infected Tibia” value ([2]; n = 5, 15 min post-injection) was 1.82 ± 0.57 SUV, the “SUV (Average ± SD), Muscle” value ([2]; n = 5, 15 min post-injection) was 0.59 ± 0.14 SUV and the “SUV (Average ± SD), Contralateral Tibia” value ([2]; n = 5, 30 min post-injection) was 0.59 ± 0.12 SUV. The “SUV (Average ± SD), Infected Tibia” value ([2]; n = 5, 30 min post-injection) was 2.40 ± 0.49 SUV, the “SUV (Average ± SD), Muscle” value ([2]; n = 5, 30 min post-injection) was 0.58 ± 0.20 SUV and the “SUV (Average ± SD), Contralateral Tibia” value ([2]; n = 5, 60 min post-injection) was 0.60 ± 0.15 SUV. For the same compound, the “SUV (Average ± SD), Infected Tibia” value ([2]; n = 5, 60 min post-injection) was 2.87 ± 0.66 SUV, the “SUV (Average ± SD), Muscle” value ([2]; n = 5, 60 min post-injection) was 0.67 ± 0.18 SUV and the “SUV (Average ± SD), Contralateral Tibia” value ([2]; n = 5, 120 min post-injection) was 0.29 ± 0.18 SUV. For the same compound, the “SUV (Average ± SD), Infected Tibia” value ([2]; n = 5, 120 min post-injection) was 3.48 ± 0.25 SUV, the “SUV (Average ± SD), Muscle” value ([2]; n = 5, 120 min post-injection) was 0.76 ± 0.30 SUV and the “SUV ± STD, Adipose” value ([3]; Adipose) was 0.76 ± 0.38 SUV. The “SUV ± STD, Bladder” value ([3]; Bladder) was 2.41 ± 2.84 SUV, the “SUV ± STD, Blood” value ([3]; Blood) was 2.76 ± 0.97 SUV and the “SUV ± STD, Bone” value ([3]; Bone) was 1.88 ± 1.26 SUV. For the same compound, the “SUV ± STD, Brain” value ([3]; Brain) was 0.07 ± 0.02 SUV, the “SUV ± STD, Cecum” value ([3]; Cecum) was 1.33 ± 0.60 SUV and the “SUV ± STD, Eye” value ([3]; Eye) was 2.30 ± 1.41 SUV. For the same compound, the “SUV ± STD, Feces” value ([3]; Feces) was 0.82 ± 0.28 SUV, the “SUV ± STD, Gut” value ([3]; Gut) was 1.15 ± 0.29 SUV and the “SUV ± STD, Heart” value ([3]; Heart) was 0.87 ± 0.30 SUV. The “SUV ± STD, Kidney-1” value ([3]; Kidney-1) was 1.11 ± 0.29 SUV, the “SUV ± STD, Kidney-2” value ([3]; Kidney-2) was 0.71 ± 0.20 SUV and the “SUV ± STD, Liver” value ([3]; Liver) was 1.05 ± 0.42 SUV. The “SUV ± STD, Lung-1” value ([3]; Lung-1) was 2.17 ± 0.85 SUV, the “SUV ± STD, Lung-2” value ([3]; Lung-2) was 3.22 ± 2.29 SUV and the “SUV ± STD, Normal Thigh” value ([3]; Normal Thigh) was 0.52 ± 0.23 SUV. For the same compound, the “SUV ± STD, Skin” value ([3]; Skin) was 0.71 ± 0.38 SUV, the “SUV ± STD, Spleen” value ([3]; Spleen) was 0.70 ± 0.16 SUV and the “SUV ± STD, Stomach” value ([3]; Stomach) was 0.49 ± 0.24 SUV. For the same compound, the “SUV ± STD, Adipose” value (E coli; [5]) was 0.85 ± 0.64 SUV, the “SUV ± STD, Bladder” value (E coli; [5]) was 3.11 ± 2.62 SUV and the “SUV ± STD, Blood” value (E coli; [5]) was 2.09 ± 1.31 SUV. For the same compound, the “SUV ± STD, Bone” value (E coli; [5]) was 2.70 ± 0.43 SUV, the “SUV ± STD, Brain” value (E coli; [5]) was 0.05 ± 0.01 SUV and the “SUV ± STD, Cecum” value (E coli; [5]) was 1.61 ± 1.29 SUV. For the same compound, the “SUV ± STD, Eye” value (E coli; [5]) was 1.42 ± 1.91 SUV, the “SUV ± STD, Feces” value (E coli; [5]) was 1.39 ± 1.10 SUV and the “SUV ± STD, Gut” value (E coli; [5]) was 1.93 ± 0.40 SUV. The “SUV ± STD, Heart” value (E coli; [5]) was 0.73 ± 0.07 SUV, the “SUV ± STD, Kidney-1” value (E coli; [5]) was 0.92 ± 0.24 SUV and the “SUV ± STD, Kidney-2” value (E coli; [5]) was 1.10 ± 0.09 SUV. The “SUV ± STD, Liver” value (E coli; [5]) was 0.86 ± 0.08 SUV, the “SUV ± STD, Lung-1” value (E coli; [5]) was 2.98 ± 1.02 SUV and the “SUV ± STD, Lung-2” value (E coli; [5]) was 2.56 ± 1.82 SUV. For the same compound, the “SUV ± STD, Normal Thigh” value (E coli; [5]) was 0.31 ± 0.18 SUV, the “SUV ± STD, Skin” value (E coli; [5]) was 1.46 ± 0.41 SUV and the “SUV ± STD, Spleen” value (E coli; [5]) was 0.73 ± 0.03 SUV. For the same compound, the “SUV ± STD, Stomach” value (E coli; [5]) was 0.46 ± 0.07 SUV, the “SUV ± STD, Adipose” value (E coli; n = 4, 24 h post infection) was 1.13 ± 0.34 SUV and the “SUV ± STD, Bladder” value (E coli; n = 4, 24 h post infection) was 4.04 ± 5.22 SUV. For the same compound, the “SUV ± STD, Blood” value (E coli; n = 4, 24 h post infection) was 2.75 ± 0.39 SUV, the “SUV ± STD, Bone” value (E coli; n = 4, 24 h post infection) was 2.65 ± 1.75 SUV and the “SUV ± STD, Brain” value (E coli; n = 4, 24 h post infection) was 0.11 ± 0.02 SUV. The “SUV ± STD, Cecum” value (E coli; n = 4, 24 h post infection) was 1.59 ± 0.35 SUV, the “SUV ± STD, Eye” value (E coli; n = 4, 24 h post infection) was 1.39 ± 1.17 SUV and the “SUV ± STD, Feces” value (E coli; n = 4, 24 h post infection) was 0.71 ± 0.24 SUV. The “SUV ± STD, Gut” value (E coli; n = 4, 24 h post infection) was 1.72 ± 0.31 SUV, the “SUV ± STD, Heart” value (E coli; n = 4, 24 h post infection) was 1.04 ± 0.28 SUV and the “SUV ± STD, Kidney-1” value (E coli; n = 4, 24 h post infection) was 1.69 ± 0.66 SUV. The “SUV ± STD, Kidney-2” value (E coli; n = 4, 24 h post infection) was 1.44 ± 0.37 SUV, the “SUV ± STD, Liver” value (E coli; n = 4, 24 h post infection) was 1.89 ± 0.47 SUV and the “SUV ± STD, Lung-1” value (E coli; n = 4, 24 h post infection) was 1.52 ± 0.29 SUV. For the same compound, the “SUV ± STD, Lung-2” value (E coli; n = 4, 24 h post infection) was 1.46 ± 0.51 SUV, the “SUV ± STD, Normal Thigh” value (E coli; n = 4, 24 h post infection) was 0.33 ± 0.16 SUV and the “SUV ± STD, Skin” value (E coli; n = 4, 24 h post infection) was 1.08 ± 0.42 SUV. The “SUV ± STD, Spleen” value (E coli; n = 4, 24 h post infection) was 1.75 ± 0.56 SUV, the “SUV ± STD, Stomach” value (E coli; n = 4, 24 h post infection) was 0.34 ± 0.13 SUV and the “mean SUV for MRSA-infected animal compared with animals infected with K. pneumoniae or P. aeruginosa” value [4] was “significantly higher”.
